Results taken from patent US8895579B2, “Heterotricyclic AMPA receptor antagonists for treatment of epilepsy, pain, and other neurological disorders and diseases” (Northwestern University, priority 2010, dated 2014).
Entries after “also recorded” stand apart in the source; their conditions may differ.

Key:
[1] = test system: AMPA receptor-mediated EPSCs in primary hippocampal neurons; experiment: AMPA receptor EPSC charge transfer during spontaneous synaptic bursts, whole-cell voltage clamp, cultured hippocampal neurons; assay type: cell-based; settings: 30 μM; for charge transfer during bursts of AMPA receptor-mediated synaptic events as a percent of the charge transfer during the control period: voltage clamped at −70 mV
Protocol: (§1) Experiments involving primary hippocampal neurons were carried out as described previously (Vivithanaporn et al., 2007). Dissociated neurons were cultured from E18 prenatal hippocampi and were used for analysis from between 17 and 28 days in vitro. The extracellular solution was the same as used for recombinant receptor analysis, while the internal solution for voltage clamp recordings contained (in mM) 95 CsF, 25 CsCl, 10 Cs-HEPES, 10 EGTA, 2 NaCl, 2 Mg-ATP, 10 QX-314, 5 TEA. and 5 4-AP (pH 7.3) and the internal solution for current clamp recordings contained (in mM) 120 KMeSO4, 5 KCl, 5 NaCl, 1 MgCl2, 11 Na-HEPES, 10 phosphocreatine, 4 Na-ATP, and 0.3 Na-GTP (pH 7.0). Borosilicate patch electrodes were pulled and fire polished to 3-5 MΩ resistance. Both whole cell current clamp and voltage clamp recordings were performed using an Axopatch 200B amplifier (MDS, Sunnyvale, Calif.) and filtered at 20 kHz. Gigaohm seals were established in voltage clamp mode and, after membrane rupture, the recordings were carried out either in voltage clamp (clamped at Vm=−70 mV) with a […] series resistance, which was compensated to ˜60%, or in current clamp mode ([…]) with the bridge balance was corrected and pipette resistance neutralized. In vitro status epilepticus (SE) was induced as described previously (Deshpande et al., 2007; Pal et al., 1999) and action potentials were recorded in current clamp mode. Briefly for in vitro SE, magnesium-containing external solution was exchanged for external solution without magnesium and supplemented with 2 μM glycine. This solution exchange produced a period of rapid depolarization and increased AP firing, followed by a period of channel inactivation and reduced AP firing. After channel inactivation, neurons characteristically would hyperpolarize to hold at a membrane voltage (Vm) which was depolarized relative to control Vm, with an increase in AP firing frequency. […] External solutions were bath-applied at a flow rate of 1.5-2 ml/minute. After recording a basal control period, IKM compounds were applied for five minutes (10 minutes for in vitro SE experiments) and changes in excitatory post-synaptic current (EPSC) charge transfer or action potential (AP) frequency were analyzed during the last two minutes of IKM application.
We first measured the actions of the IKM compounds on the charge transfer during spontaneously occurring, polysynaptic bursts of AMPA receptor excitatory post-synaptic currents (EPSCs) in cultured hippocampal neurons (recorded in the presence of bicuculline methiodide and picrotoxin to inhibit GABAA receptors and D-APV to inhibit NMDA receptors). […] IKM-159 had the greatest inhibitory effect at a fixed concentration of 30 μM, producing a reduction in charge transfer of 65±5% (n=6, p<0.01). […] Despite the polar chemical nature of the compounds, recoveries to basal EPSC charge transfers were minimal.

[2] = target: T1, recombinant homomeric GluA4 AMPA receptor (Rattus norvegicus, UniProt P19493); experiment: Whole-cell patch clamp of recombinant GluA4 receptors in HEK293-T/17 cells; assay type: cell-based; settings: for remaining activity at 30 µM: HEK293T/17, read-out: GluA4 peak current as percent of control amplitude; for inhibition at 30 µM: HEK293T/17, read-out: reduction from control GluA4 peak glutamate current amplitude (percent inhibition)
T1 construct: expressed in transfected cells; host or cells: HEK293-T/17 (CRL-11268)
T1 sequence (P19493 21-902 isoform P19493-2 limits assumed): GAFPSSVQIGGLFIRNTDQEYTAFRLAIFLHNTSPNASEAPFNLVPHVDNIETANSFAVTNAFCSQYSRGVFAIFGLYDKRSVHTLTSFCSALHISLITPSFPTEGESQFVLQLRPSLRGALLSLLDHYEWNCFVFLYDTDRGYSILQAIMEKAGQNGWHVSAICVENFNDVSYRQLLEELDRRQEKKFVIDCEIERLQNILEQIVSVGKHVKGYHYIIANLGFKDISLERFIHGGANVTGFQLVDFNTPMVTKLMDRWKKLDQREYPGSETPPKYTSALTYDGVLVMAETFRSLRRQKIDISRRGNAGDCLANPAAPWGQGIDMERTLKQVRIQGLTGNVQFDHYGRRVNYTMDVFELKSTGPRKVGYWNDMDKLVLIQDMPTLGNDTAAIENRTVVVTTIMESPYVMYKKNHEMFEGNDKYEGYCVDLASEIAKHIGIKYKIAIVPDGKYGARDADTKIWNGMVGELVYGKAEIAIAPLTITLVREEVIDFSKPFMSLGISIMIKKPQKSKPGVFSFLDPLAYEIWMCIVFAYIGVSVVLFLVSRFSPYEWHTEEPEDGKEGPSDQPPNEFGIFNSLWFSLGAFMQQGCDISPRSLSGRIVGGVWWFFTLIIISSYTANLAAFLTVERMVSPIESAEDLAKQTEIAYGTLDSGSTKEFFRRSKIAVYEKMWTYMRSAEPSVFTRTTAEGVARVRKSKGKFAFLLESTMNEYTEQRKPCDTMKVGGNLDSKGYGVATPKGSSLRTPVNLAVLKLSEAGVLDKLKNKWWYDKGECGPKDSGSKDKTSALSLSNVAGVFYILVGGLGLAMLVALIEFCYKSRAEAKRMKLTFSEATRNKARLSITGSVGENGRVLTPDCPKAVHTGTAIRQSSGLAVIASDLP
Protocol: Cell Culture and Transfection. Human embryonic kidney cells expressing T-antigen, clone 17 (HEK293-T/17) (CRL-11268) were cultured at 37° C. with 5% CO2 in DMEM, including 100 μg/mL penicillin, 100 μg/mL streptomycin, and 10% heat-inactivated fetal bovine serum. Cells were split twice per week. For transfection, HEK293-T/17 cells were plated at 3×10^4 cells/cm^2 for pharmacology experiments and 5×10^3 cells/cm^2 for physiology experiments in fresh medium 24 h prior to transfection. Cells were transfected with AMPA or KA receptor plasmid cDNAs using Mirus Trans-IT transfection reagent (Minus Bio Corporation, Madison, Wis.) at a ratio of 1 μg cDNA: 3 μL Trans-1T reagent and maintained in transfection medium overnight followed by a media change the next day. Transfected cells were maintained in this medium until the experiment was conducted (48-72 h total post transfection).
Electrophysiology. For analysis of recombinant receptors, HEK293-T/17 cells were co-transfected with 0.2 μg of iGluR cDNA and 0.05 μg of eGFP. For heterologous GluA1/GluA2 receptors, the GluA1:GluA2 cDNA ratio was 1:6. Two to three days post-transfection, eGFP-expressing cells were lifted from the cover slip and voltage clamped in whole cell mode. The internal solution contained (in mM) 30 CsF, 110 CsCl, 10 HEPES, 4 NaCl, 5 EGTA and 0.5 CaCl2 (pH 7.3), while the extracellular solution contained (in mM) 140 NaCl, 10 glucose, 10 Cs-HEPES, 3 KCl, 2 CaCl2 and 1 MgCl2 (pH 7.3). Borosilicate patch electrodes were pulled and fire polished to 2-3 MO resistance. Lifted cells were maintained in a laminar stream of extracellular solution from a triple-barreled flow pipe, which was rapidly translated using a piezoceramic bimorph for fast application of glutamate or kainate alone or in combination with various antagonists (the 10-90% rise time of glutamate-evoked currents was ˜1 ms). IKM compounds were applied for three minutes with analysis performed on the final one minute of drug application.
Statistical analysis. At least three separate experiments were performed for each assay. For data involving three or more groups, a one-way analysis of variance (ANOVA) was performed with a Tukey-Kramer post hoc test for comparison amongst the groups. For data involving two groups, an unpaired student's t-test was performed; if the standard deviations between the two groups were statistically significant, a Welsh correction was added. If the data involving three or more groups or data involving two groups where multiple treatments were performed on the same sample, a repeated measures ANOVA and paired t-test were used, respectively, for analysis of significance. Dose-inhibition response curves were fitted, with the maximum value constrained to 100 and the minimum value constrained to values greater than or equal to zero, using the following equation in order to calculate the IC50 values: Response=minimum+(maximum−minimum)/(1+(IC50^hill slope/dose^hillslope)) All calculations for statistical analysis were carried out with Graphpad Prism4 software (La Jolla, Calif.). Data are presented as mean±S.E.M. with statistical significance set at p<0.05.

[3] = test system: mice; settings: Ikoma et al., 2008; Oikawa et al., 2009 and unpublished observations; cited from earlier work
[4] = test system: primary hippocampal neurons; experiment: Spontaneous action potential firing, current clamp, cultured hippocampal neurons; assay type: cell-based; settings: 20 μM
Protocol: as §1
Effects of IKM-159 on neuronal excitability. […] To determine if altered neuronal excitability could contribute to this behavioral phenotype, we examined the effect of IKM-86 and IKM-159 on action potential firing in cultured hippocampal neurons. Spontaneous action potentials were recorded in current-clamp mode before, during and after application of 20 μM IKM-86 and IKM-159. […]

[5] = test system: cultured hippocampal neurons; experiment: Whole-cell current elicited in cultured hippocampal neurons; assay type: cell-based; settings: 30 μM; GABAA and NMDA receptor antagonists present
Protocol: Experiments involving primary hippocampal neurons were carried out as described previously (Vivithanaporn et al., 2007). Dissociated neurons were cultured from E18 prenatal hippocampi and were used for analysis from between 17 and 28 days in vitro. The extracellular solution was the same as used for recombinant receptor analysis, while the internal solution for voltage clamp recordings contained (in mM) 95 CsF, 25 CsCl, 10 Cs-HEPES, 10 EGTA, 2 NaCl, 2 Mg-ATP, 10 QX-314, 5 TEA. and 5 4-AP (pH 7.3) and the internal solution for current clamp recordings contained (in mM) 120 KMeSO4, 5 KCl, 5 NaCl, 1 MgCl2, 11 Na-HEPES, 10 phosphocreatine, 4 Na-ATP, and 0.3 Na-GTP (pH 7.0). Borosilicate patch electrodes were pulled and fire polished to 3-5 MΩ resistance. Both whole cell current clamp and voltage clamp recordings were performed using an Axopatch 200B amplifier (MDS, Sunnyvale, Calif.) and filtered at 20 kHz. […] In vitro status epilepticus (SE) was induced as described previously (Deshpande et al., 2007; Pal et al., 1999) and action potentials were recorded in current clamp mode. […] After recording a basal control period, IKM compounds were applied for five minutes (10 minutes for in vitro SE experiments) and changes in excitatory post-synaptic current (EPSC) charge transfer or action potential (AP) frequency were analyzed during the last two minutes of IKM application. […]

[6] = test system: AMPA receptors; settings: cited from earlier work; for concentration range inhibiting AMPA receptors: Bleakman et al., 1996
[7] = test system: primary hippocampal neurons; experiment: In vitro model of status epilepticus (Mg2+ removal, 2 μM glycine), action potential firing in hippocampal neurons; assay type: cell-based; settings: 1 μM; SE 2.0±0.3 Hz
Protocol: as §1
Several AMPA receptor selective antagonists reduce neuronal hyperactivity in both acute brain slice preparations and in in vitro models of epilepsy (Grasso et al., 1999; Szabados et al., 2001). […] We therefore tested the efficacy of IKM-159 in reducing the hyperactive neuronal phenotype in dissociated hippocampal neurons using an in vitro model of status epilepticus (SE) (Deshpande et al., 2007; Pal et al., 1999). […]

Row | SMILES | reduction from control charge transfer [1] | charge transfer during bursts of AMPA receptor-mediated synaptic events as a percent of the charge transfer during the control period [1] | remaining activity at 30 µM [2] | inhibition at 30 µM [2] | behavioral phenotype in mice [3] | further results
1 | O=C(O)C[C@@]12O[C@H]3C=CCN[C@H]3C1C(=O)N[C@H]2C(=O)O (stereo partly drawn) [IKM-27] | 31±9% | 70±9% | 80 ± 6% | 20 ± 6% | hypoactive phenotypes similar to cataleptic states | 
2 | O=C(O)C[C@@]12O[C@H]3[C@H](O)[C@H](O)CO[C@H]3C1CN[C@H]2C(=O)O (stereo partly drawn) [IKM-86] | 42±8% | 58±8% | 81 ± 2% | 19 ± 2% | hypoactive phenotypes similar to cataleptic states; also recorded: marked hypoactivity and immobility | persistence of reduction in action potential firing frequency after removal of compound [4]: prolonged; action potential firing frequency in presence of compound ([4]; basal (spontaneous) firing): 0.9±0.3 Hz
3 | O=C(O)C[C@@]12O[C@H]3CCCCO[C@H]3C1CN[C@H]2C(=O)O (stereo partly drawn) [IKM-98] | 11±14% | 89±14% | 88 ± 2% | 12 ± 2% | varying degrees of hyperactivity | whole-cell current elicited [5]: 380±160 pA
4 | CNC(=O)N1N=C(c2ccc(N)cc2)c2cc3c(cc2CC1C)OCO3 (stereo not drawn) [GYKI 53655] |  |  |  |  |  | concentration range inhibiting AMPA receptors [6]: low micromolar range
5 | N#Cc1cc2c(cc1[N+](=O)[O-])=NC(=O)C(=O)N=2 [CNQX, 6-cyano-7-nitroquinoxaline-2,3-dione, reference compound] |  |  |  |  |  | AP firing frequency in SE condition with compound [7]: 1.2±0.4 Hz
6 | CC1=NN=C(c2ccc(N)cc2)c2cc3c(cc2C1)OCO3 [GYKI 52466] |  |  |  |  |  | concentration range inhibiting AMPA receptors [6]: low micromolar range
7 | Cc1cc(-c2ccc(/N=N/c3ccc4c(S(=O)(=O)[O-])cc(S(=O)(=O)[O-])c(N)c4c3O)c(C)c2)ccc1/N=N/c1ccc2c(S(=O)(=O)[O-])cc(S(=O)(=O)[O-])c(N)c2c1O.[Na+].[Na+].[Na+].[Na+] [EB] |  |  |  |  |  | IC50 ([6]; non-competitive antagonist, Keller et al., 1993, Weigand et al., 1998): high nanomolar-low micromolar range
8 | O=C(O)C[C@@]12O[C@H]3[C@H](O)[C@H](O)CCO[C@H]3C1CN[C@H]2C(=O)O (stereo partly drawn) [IKM-107] | 39±12% | 62±12% | 95 ± 2% | 5 ± 2% | varying degrees of hyperactivity | whole-cell current elicited [5]: 47±11 pA
9 | O=C(O)C[C@@]12O[C@H]3CCCO[C@H]3C1CN[C@H]2C(=O)O (stereo partly drawn) [IKM-110] | 34±12% | 66±12% | 86 ± 2% | 14 ± 2% | varying degrees of hyperactivity | 
